The results in this text go back to PubChem BioAssay (NCI).

SMILES strings stand for the structures.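 Assay format: 96-well plates, 48-hour exposure. TGI marks complete inhibition of growth.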

Among the test systems are CCRF-CEM leukemia; HCC-2998 colon; HL-60(TB) leukemia; HOP-92 NSCLC; K-562 leukemia; LOX IMVI melanoma; M14 melanoma; MDA-MB-435; NCI-H226 lung; NCI-H23 lung; NCI/ADR-RES ovarian; OVCAR-3 ovarian; OVCAR-5 ovarian; SF-268 CNS; SK-MEL-2 melanoma; SW-620 colon.
Common to all, as to assay: growth of human tumour cells (NCI), 48 h

As to `CC1=C(C(=O)NNC(=O)C(N)=O)CC(C(=O)NNC(=O)C(N)=O)=C(C)N1`, the TGI in the experiment on CCRF-CEM leukemia, with HCC-2998 colon, in the experiment with HL-60(TB) leukemia, in the experiment on HOP-92 NSCLC, in the experiment with K-562 leukemia and with LOX IMVI melanoma was more than 100 µM throughout. For the same compound, the TGI in the experiment with M14 melanoma, in the experiment on MDA-MB-435, in the experiment on NCI-H226 lung, in the experiment on NCI-H23 lung, in the experiment with NCI/ADR-RES ovarian and with OVCAR-3 ovarian was more than 100 µM in each case. Moreover, the TGI in the experiment with OVCAR-5 ovarian, with SF-268 CNS, in the experiment with SK-MEL-2 melanoma and in the experiment on SW-620 colon was more than 100 µM each time.
On to `CC(=O)c1cccc(Nc2c3ccccc3nc3occc23)c1`, for which the TGI was 18.8 µM in the experiment on CCRF-CEM leukemia; 25.2 µM in the experiment on HCC-2998 colon; 12.4 µM in the experiment on HL-60(TB) leukemia; 62.2 µM in the experiment with HOP-92 NSCLC; more than 100 µM in the experiment on K-562 leukemia; more than 100 µM in the experiment on LOX IMVI melanoma. For the same compound, the TGI in the experiment on M14 melanoma is 24.4 µM; in the experiment on MDA-MB-435 it was 2.85 µM; in the experiment with NCI-H226 lung, more than 100 µM; in the experiment on NCI-H23 lung, 18.2 µM; in the experiment on NCI/ADR-RES ovarian it was 6.47 µM; in the experiment with OVCAR-3 ovarian it was 5.99 µM. The TGI in the experiment with OVCAR-5 ovarian was more than 100 µM; in the experiment on SF-268 CNS, more than 100 µM; in the experiment with SK-MEL-2 melanoma it was 11.4 µM.
In the case of `Cc1ccc(-c2cn3c(nc4ccccc43)c(-c3ccccc3)n2)cc1`, the TGI in the experiment on CCRF-CEM leukemia is more than 100 µM; in the experiment on HCC-2998 colon, more than 100 µM; in the experiment with HL-60(TB) leukemia, more than 100 µM; with HOP-92 NSCLC it was 56.4 µM; in the experiment with K-562 leukemia, more than 100 µM; in the experiment on LOX IMVI melanoma, more than 100 µM. Also, the TGI with M14 melanoma was more than 100 µM; with MDA-MB-435, more than 100 µM; with NCI-H226 lung, more than 100 µM; with NCI-H23 lung, 80.8 µM; in the experiment with NCI/ADR-RES ovarian, more than 100 µM; in the experiment with OVCAR-3 ovarian, more than 100 µM. Moreover, the TGI in the experiment on OVCAR-5 ovarian was more than 100 µM; in the experiment on SF-268 CNS, more than 96.2 µM; with SK-MEL-2 melanoma it was 58.3 µM; in the experiment on SW-620 colon, more than 100 µM.
Consider `CCOC(=O)CCC(NC(=O)c1ccc(Nc2cnc3cc(C(F)(F)F)ccc3n2)cc1)C(=O)OCC` (stereo not drawn), for which the TGI is more than 100 µM in the experiment on CCRF-CEM leukemia; more than 100 µM in the experiment on HCC-2998 colon; more than 100 µM in the experiment with HL-60(TB) leukemia; 49.6 µM with HOP-92 NSCLC; more than 100 µM in the experiment on K-562 leukemia; more than 100 µM in the experiment on LOX IMVI melanoma. In addition, the TGI with M14 melanoma, in the experiment with MDA-MB-435, with NCI-H226 lung, in the experiment with NCI-H23 lung, with NCI/ADR-RES ovarian and with OVCAR-3 ovarian was more than 100 µM throughout. In addition, the TGI is more than 100 µM with OVCAR-5 ovarian, more than 78.4 µM with SF-268 CNS, more than 100 µM in the experiment with SK-MEL-2 melanoma and more than 100 µM in the experiment on SW-620 colon.
For the compound `C=CCOc1ccc(C2(c3ccc(OCC=C)cc3)C(=O)Nc3ccccc32)cc1`, the TGI in the experiment on CCRF-CEM leukemia, in the experiment on HCC-2998 colon, with HL-60(TB) leukemia, with HOP-92 NSCLC, in the experiment with K-562 leukemia and with LOX IMVI melanoma was more than 10 µM in each case. In addition, the TGI in the experiment with M14 melanoma, in the experiment with MDA-MB-435, in the experiment on NCI-H226 lung, in the experiment on NCI-H23 lung, with NCI/ADR-RES ovarian and in the experiment on OVCAR-3 ovarian was more than 10 µM each time. In addition, the TGI in the experiment on OVCAR-5 ovarian, in the experiment with SF-268 CNS, with SK-MEL-2 melanoma and in the experiment with SW-620 colon was more than 10 µM throughout.
With `COC(=O)C1=C([C@H]2COC(C)(C)O2)[C@H]2C[C@@H]1[C@@H]1OC(C)(C)O[C@@H]12`, the TGI in the experiment with CCRF-CEM leukemia, in the experiment on HCC-2998 colon, with HL-60(TB) leukemia, in the experiment with HOP-92 NSCLC, in the experiment on K-562 leukemia and in the experiment on LOX IMVI melanoma was more than 100 µM in each case. Besides, the TGI in the experiment with M14 melanoma, with MDA-MB-435, in the experiment with NCI-H226 lung, in the experiment on NCI-H23 lung, in the experiment with NCI/ADR-RES ovarian and with OVCAR-3 ovarian was more than 100 µM throughout. The TGI with OVCAR-5 ovarian, in the experiment on SF-268 CNS, in the experiment with SK-MEL-2 melanoma and in the experiment on SW-620 colon was more than 100 µM each time.
For the compound `Cc1cc(C)c(S(=O)(=O)N(CCCCCCN)OCCCN)c(C)c1`, the TGI with CCRF-CEM leukemia was 36.9 µM; in the experiment on HCC-2998 colon, 32.6 µM; with HL-60(TB) leukemia, 33.3 µM; in the experiment on HOP-92 NSCLC it was 29.9 µM; in the experiment on K-562 leukemia, more than 100 µM; in the experiment on LOX IMVI melanoma it was 31.3 µM. Moreover, the TGI was 44.9 µM with M14 melanoma; more than 100 µM with MDA-MB-435; 86.5 µM in the experiment with NCI-H226 lung; 32 µM in the experiment with NCI-H23 lung; more than 100 µM in the experiment on NCI/ADR-RES ovarian; 46 µM in the experiment on OVCAR-3 ovarian. Also, the TGI in the experiment on OVCAR-5 ovarian amounted to 40.1 µM; in the experiment on SF-268 CNS it was 36.3 µM; with SK-MEL-2 melanoma, 36 µM; in the experiment on SW-620 colon, 40.4 µM.
Take `CCN(CC)CCOc1ccc(N2Cc3ccccc3C2=O)cc1`: the TGI in the experiment with CCRF-CEM leukemia, with HCC-2998 colon, in the experiment with HL-60(TB) leukemia, with HOP-92 NSCLC, in the experiment with K-562 leukemia and in the experiment on LOX IMVI melanoma was more than 10 µM each time. For the same compound, the TGI with M14 melanoma, with MDA-MB-435, with NCI-H226 lung, with NCI-H23 lung, in the experiment with NCI/ADR-RES ovarian and with OVCAR-3 ovarian was more than 10 µM in each case. Besides, the TGI with OVCAR-5 ovarian, in the experiment with SF-268 CNS, in the experiment on SK-MEL-2 melanoma and in the experiment with SW-620 colon was more than 10 µM each time.
Consider `COC1/C=C\OC2(C)Oc3c(C)c(O)c4c(O)c(c(/C=N\OCCCc5ccccc5)c(O)c4c3C2=O)NC(=O)/C(C)=C\C=C/C(C)C(O)C(C)C(O)C(C)C(OC(C)=O)C1C` (stereo not drawn), for which the TGI in the experiment on CCRF-CEM leukemia was 6.35 µM; with HCC-2998 colon, 25.6 µM; in the experiment on HL-60(TB) leukemia, 5.38 µM; in the experiment on HOP-92 NSCLC, 6.26 µM; in the experiment on K-562 leukemia, 15.4 µM; in the experiment with LOX IMVI melanoma it was 10.2 µM. Moreover, the TGI in the experiment on M14 melanoma amounted to 6.76 µM; in the experiment on MDA-MB-435, 9.28 µM; in the experiment on NCI-H226 lung it was 7.09 µM; in the experiment with NCI-H23 lung, 10 µM; in the experiment with NCI/ADR-RES ovarian it was 13.4 µM; with OVCAR-3 ovarian, 9.61 µM. The TGI in the experiment with OVCAR-5 ovarian was determined as 20.4 µM; with SF-268 CNS it was 18.3 µM; in the experiment on SK-MEL-2 melanoma, 5.35 µM; with SW-620 colon, 18 µM.
